For assay [1], the system named is Staphylococcus aureus. As to the kind of experiment: Antimicrobial activity against methicillin-resistant Staphylococcus aureus by NCCLS method. Format: functional.
The next assay has as its system Escherichia coli. Kind of assay: Inhibition of protein translation in Escherichia coli S30 cell extract. It is filed as functional.
The nature of assay [2]: Inhibition of protein translation in rabbit reticulocytes. Format: functional, cell-based, Oryctolagus cuniculus.
The nature of assay [3]: Selectivity index, ratio of IC50 for protein translation inhibition in Escherichia coli S30 cell extract to IC50 for protein translation inhibition in rabbit reticulocytes. Format: functional.
The subject of assay [4] is Staphylococcus aureus. As to the kind of experiment: Antimicrobial activity against methicillin-resistant Staphylococcus aureus in iv dosed mouse septicemia model. It is filed as functional. As to conditions: read-out: PD50.
Assay [5] concerns Staphylococcus aureus. As to the kind of experiment: Antimicrobial activity against methicillin-resistant Staphylococcus aureus in mouse septicemia model. Format: functional.

pIC50: −log10 of the molar value. ≈ marks a conversion by molar mass, not a printed value. Some results are limits rather than exact numbers.

Broadly, the MIC is the lowest concentration that inhibits growth of the organism. Broadly, the pIC50 is the negative decadic logarithm of the IC50, by convention in mol/L. Low readings indicate a high IC50, high ones a low IC50. Regarding `CN(CC1CNC(NC(N)=O)=NC1=O)C(=O)C[C@@H](N)CCCNC(=N)N` (mixture of isomers), in the assay with Staphylococcus aureus [1], the minimal inhibitory concentration (MIC) was over 500 µg/mL. Moreover, the negative-log IC50 (pIC50) in the assay on Escherichia coli was 4.29; in assay [2] it was 4.25. For the same molecule, in assay [3], the Selectivity ratio was 1.1.
As to `CN(C(=O)C[C@@H](N)CCCNC(=N)N)c1ccc(NC(N)=O)[nH]c1=O` (mixture of isomers), the MIC in the assay with Staphylococcus aureus [1] was over 500 µg/mL. Further, the results for the negative-log IC50 (pIC50) (in the assay on Escherichia coli; in assay [2]) were under 3.30 and 4.25, respectively.
On to `CN(C(=O)C[C@@H](N)CCCN=C(N)N)C1CN=C(NC(N)=O)NC1=O` (mixture of isomers), for which the values for the MIC in the assay on Staphylococcus aureus [1] and against Staphylococcus aureus [5] were 8 µg/mL and 12.8 µg/mL, respectively. Moreover, in assay [2], the negative logarithm of the IC50 (pIC50) was 6.70. Moreover, in assay [3], the Selectivity ratio came to 0.67. The ED50 with Staphylococcus aureus [4] was determined as 0.7 mg/kg.
`CN(C(=O)C[C@@H](N)CC1CCNCC1)C1CNC(NC(N)=O)=NC1=O` (mixture of isomers) had a minimum inhibitory concentration (MIC) in the assay with Staphylococcus aureus [1] of 64 µg/mL. Moreover, the pIC50 (in the assay on Escherichia coli; in assay [2]) was 5.18 in each case. In assay [3], the Selectivity ratio was 1.
As for `CN(C(=O)C[C@@H](N)C[C@H]1CCNC1)C1CNC(NC(N)=O)=NC1=O` (mixture of isomers), the MIC in the assay with Staphylococcus aureus [1] came to 64 µg/mL. For the same molecule, the pIC50 in the assay on Escherichia coli was 5.70; in assay [2] it was 6.22. For the same molecule, the Selectivity ratio in assay [3] was 0.3.
The corresponding values for `CN(C(=O)C[C@@H](N)c1cccc(NC(=N)N)c1)C1CNC(NC(N)=O)=NC1=O` (mixture of isomers) are 256 µg/mL, 6.82, 5.72 and 10.
For the molecule `CN(C(=O)C[C@@H](N)CCCNC(=N)N)C1CN=C(NC(N)=O)NC1` (mixture of isomers), the MIC against Staphylococcus aureus [1] was over 256 µg/mL. The negative logarithm of the IC50 (pIC50) in the assay on Escherichia coli was 3.92.
Take `CN(C(=O)C[C@@H](N)CCCN/C(N)=N\O)C1CNC(NC(N)=O)=NC1=O` (mixture of isomers): the minimum inhibitory concentration (MIC) against Staphylococcus aureus [1] turned out to be 64 µg/mL. The negative logarithm of the IC50 (pIC50) in the assay with Escherichia coli was 5.09; in assay [2], 4.63. In addition, the Selectivity ratio in assay [3] is reported as 2.8.
As for `CC(=O)NC1=CC(=O)C(N(C)C(=O)C[C@@H](N)CCCNC(=N)N)CN1` (mixture of isomers), the MIC against Staphylococcus aureus [1] is over 500 µg/mL. In addition, the negative logarithm of the IC50 (pIC50) (in the assay with Escherichia coli; in assay [2]) was under 3.30 each time.
Regarding `CCC(=O)NC1=NC(=O)C(N(C)C(=O)C[C@@H](N)CCCNC(=N)N)CN1` (mixture of isomers), it took 16 µg/mL to inhibit growth with Staphylococcus aureus [1] (MIC). In addition, the pIC50 (in the assay with Escherichia coli; in assay [2]) was over 5.30 each time.
In the assay on Staphylococcus aureus [1], `CN1C(=O)C(N(C)C(=O)C[C@@H](N)CCCNC(=N)N)CN=C1NC(N)=O` (mixture of isomers) gave an MIC of over 500 µg/mL. Besides, the negative logarithm of the IC50 (pIC50) (with Escherichia coli; in assay [2]) was under 3.30 in each case.
With `CN(C(=O)C[C@@H](N)C1CCN(C(=N)N)CC1)C1CNC(NC(N)=O)=NC1=O` (mixture of isomers), the MIC against Staphylococcus aureus [1] worked out at 16 µg/mL. For the same molecule, the pIC50 was 6.74 with Escherichia coli and 6.64 in assay [2]. Further, the Selectivity ratio in assay [3] worked out at 1.3.
Take `CC(=O)NC(=N)NCCC[C@H](N)CC(=O)N(C)C1CNC(NC(N)=O)=NC1=O` (mixture of isomers): in the assay on Staphylococcus aureus [1], the minimum inhibitory concentration (MIC) is over 256 µg/mL. This molecule gave a pIC50 with Escherichia coli of 3.97.
In turn, `CN(C(=O)C[C@@H](N)CCCNC(N)=O)C1CNC(NC(N)=O)=NC1=O` (mixture of isomers) had a minimal inhibitory concentration (MIC) in the assay with Staphylococcus aureus [1] of over 500 µg/mL. Besides, the negative logarithm of the IC50 (pIC50) (in the assay on Escherichia coli; in assay [2]) was under 3.30 each time.
With `CCN(C(=O)C[C@@H](N)CCCNC(=N)N)C1CNC(NC(N)=O)=NC1=O` (mixture of isomers), the MIC against Staphylococcus aureus [1] amounted to 256 µg/mL. Also, the pIC50 was 5.74 in the assay with Escherichia coli and 4.35 in assay [2]. In addition, the Selectivity ratio in assay [3] amounted to 25.
Turning to `CC/N=C(/N)NCCC[C@H](N)CC(=O)N(C)C1CN=C(NC(N)=O)NC1=O` (mixture of isomers), the MIC against Staphylococcus aureus [1] was over 256 µg/mL. In addition, the pIC50 is 5.62 with Escherichia coli and 4.56 in assay [2].
In the case of `C/N=C(/NC)NCCC[C@H](N)CC(=O)N(C)C1CNC(NC(N)=O)=NC1=O` (mixture of isomers), in the assay on Staphylococcus aureus [1], the MIC was determined as 256 µg/mL. In addition, the pIC50 is 5.89 in the assay on Escherichia coli and 4.58 in assay [2]. For the same molecule, in assay [3], the Selectivity ratio came out at 20.
In the assay on Staphylococcus aureus [1], `CN(C(=O)C[C@@H](N)Cc1ccc(C(=N)N)cc1)C1CNC(NC(N)=O)=NC1=O` (mixture of isomers) registered an MIC of 512 µg/mL. In addition, the figures for the pIC50 (in the assay on Escherichia coli; in assay [2]) were 6.29 and 4.91, respectively. Further, in assay [3], the Selectivity ratio is 8.2.
The corresponding values for `CN[C@@H](CCCCN)CC(=O)N(C)C1CNC(NC(N)=O)=NC1=O` (mixture of isomers) are 128 µg/mL, 4.60, 5.30 and 0.2.
`CN(C(=O)C[C@@H](N)CC1CCN(C(=N)N)CC1)C1CNC(NC(N)=O)=NC1=O` (mixture of isomers): the MIC in the assay on Staphylococcus aureus [1] and in the assay on Staphylococcus aureus [5] was 16 µg/mL each time. In addition, the negative-log IC50 (pIC50) in the assay on Escherichia coli is 6.96; in assay [2] it was 6.12. Further, the Selectivity ratio in assay [3] was determined as 6.8. The ED50 in the assay on Staphylococcus aureus [4] was 2.4 mg/kg.
Take `CN(C(=O)C[C@@H](N)CCCCN)C1CN=C(NC(N)=O)NC1=O` (mixture of isomers): the minimal inhibitory concentration (MIC) against Staphylococcus aureus [1] was 64 µg/mL. In addition, the negative logarithm of the IC50 (pIC50) in the assay with Escherichia coli was 5.19; in assay [2], 4.40. In addition, the Selectivity ratio in assay [3] amounted to 6.
For `CN(C)C(=N)NCCC[C@H](N)CC(=O)N(C)C1CNC(NC(N)=O)=NC1=O` (mixture of isomers) the same measures were 64 µg/mL, 5.38, 4.69 and 4.9.
In the assay with Staphylococcus aureus [1], `CN(C(=O)C[C@H](CCCCN)NC=O)C1CNC(NC(N)=O)=NC1=O` (mixture of isomers) had a minimum inhibitory concentration (MIC) of over 500 µg/mL. Further, the pIC50 (in the assay on Escherichia coli; in assay [2]) was under 3.30 each time.
On to `CN1CC(N(C)C(=O)C[C@@H](N)CCCNC(=N)N)C(=O)N=C1NC(N)=O` (mixture of isomers), for which the MIC in the assay with Staphylococcus aureus [1] was over 500 µg/mL. For the same molecule, the negative logarithm of the IC50 (pIC50) (in the assay on Escherichia coli; in assay [2]) was under 3.30 in each case.
For the molecule `CN[C@H](CC(C)C)C(=O)N[C@H]1C(=O)N[C@@H](CC(N)=O)C(=O)N[C@H]2C(=O)N[C@H]3C(=O)N[C@H](C(=O)N[C@H](C(=O)O)c4cc(O)cc(O)c4-c4cc3ccc4O)[C@H](O)c3ccc(c(Cl)c3)Oc3cc2cc(c3O[C@@H]2O[C@H](CO)[C@@H](O)[C@H](O)[C@H]2O[C@H]2C[C@](C)(N)[C@H](O)[C@H](C)O2)Oc2ccc(cc2Cl)[C@H]1O` [VANCOMYCIN], the ED50 in the assay with Staphylococcus aureus [4] was 9.6 mg/kg. In the assay on Staphylococcus aureus [5], this molecule came in with an MIC of 0.8 µg/mL (≈ 0.552 µM).
Take `CN(C(=O)C[C@@H](N)CCCNC(=N)N)C1CNC(N2CCNC2=O)=NC1=O` (mixture of isomers): the MIC with Staphylococcus aureus [1] was over 500 µg/mL. For the same molecule, the pIC50 (in the assay with Escherichia coli; in assay [2]) was under 3.30 each time.
`CC(=O)NC1=NC(=O)C(N(C)C(=O)C[C@@H](N)CCCNC(=N)N)CN1` (mixture of isomers): the MIC against Staphylococcus aureus [1] turned out to be 8 µg/mL. For the same molecule, the negative-log IC50 (pIC50) in the assay on Escherichia coli was 7.00; in assay [2], 6.70. For the same molecule, in assay [3], the Selectivity ratio was 2.
Take `C/N=C(/N)NCCC[C@H](N)CC(=O)N(C)C1CN=C(NC(N)=O)NC1=O` (mixture of isomers): the minimal inhibitory concentration (MIC) with Staphylococcus aureus [1] worked out at 8 µg/mL; with Staphylococcus aureus [5], 32 µg/mL. The figures for the pIC50 (in the assay on Escherichia coli; in assay [2]) were 6.70 and 5.89, respectively. In addition, in assay [3], the Selectivity ratio was determined as 6.5. The ED50 in the assay on Staphylococcus aureus [4] was 3.3 mg/kg.
With `CN(C(=O)C[C@@H](N)CCCN1CCNC1=N)C1CNC(NC(N)=O)=NC1=O` (mixture of isomers), the lowest concentration to inhibit growth against Staphylococcus aureus [1] (MIC) was 128 µg/mL. In addition, the pIC50 is 5.38 in the assay on Escherichia coli and 4.46 in assay [2]. For the same molecule, the Selectivity ratio in assay [3] stood at 8.3.
Take `CN(C)C(=O)NC1=NC(=O)C(N(C)C(=O)C[C@@H](N)CCCNC(=N)N)CN1` (mixture of isomers): in the assay on Staphylococcus aureus [1], the MIC is over 500 µg/mL. In addition, the negative-log IC50 (pIC50) with Escherichia coli is 5.06; in assay [2], 4.71. Also, the Selectivity ratio in assay [3] was 3.4.
The corresponding values for `C/N=C(/N)N1CCC(C[C@H](N)CC(=O)N(C)C2CNC(NC(N)=O)=NC2=O)CC1` (mixture of isomers) are 64 µg/mL, 5.44, 4.28 and 14.7.
The corresponding values for `CC(=O)N(C)C1=NC(=O)C(N(C)C(=O)C[C@@H](N)CCCNC(=N)N)CN1` (mixture of isomers) are 64 µg/mL, 5.17, 4.68 and 3.1.
For `CN(C(=O)C[C@@H](N)CCC(=O)NC(=N)N)C1CNC(NC(N)=O)=NC1=O` (mixture of isomers) the same measures were over 500 µg/mL, 3.65, 5.15 and 0.03.
The molecule `CN(C(=O)C[C@@H](N)CCCN)C1CN=C(NC(N)=O)NC1=O` (mixture of isomers) came in with an MIC in the assay on Staphylococcus aureus [1] of 64 µg/mL. Also, the pIC50 in the assay on Escherichia coli is 5.05; in assay [2], over 5.30. Further, the Selectivity ratio in assay [3] was under 0.6.
On to `CN(C(=O)C[C@@H](N)C[C@H]1CCN(C(=N)N)C1)C1CNC(NC(N)=O)=NC1=O` (mixture of isomers), for which the MIC in the assay on Staphylococcus aureus [1] came out at 8 µg/mL; in the assay on Staphylococcus aureus [5], 16 µg/mL. The figures for the negative-log IC50 (pIC50) (in the assay with Escherichia coli; in assay [2]) were 6.77 and 6.35, respectively. Also, the Selectivity ratio in assay [3] was 2.6. Moreover, the ED50 in the assay on Staphylococcus aureus [4] was 1.5 mg/kg.
For the molecule `CN(C(=O)C[C@@H](N)CCCCCN)C1CNC(NC(N)=O)=NC1=O` (mixture of isomers), in the assay with Staphylococcus aureus [1], the lowest concentration to inhibit growth (MIC) was 16 µg/mL. Moreover, the pIC50 in the assay on Escherichia coli is 5.30; in assay [2] it was 5.00. In addition, the Selectivity ratio in assay [3] is given as 2.
For `CN(C(=O)C[C@@H](N)C[C@@H]1CCNC1)C1CNC(NC(N)=O)=NC1=O` (mixture of isomers) the same measures were 128 µg/mL, 5.41, 5.47 and 0.9.
